Experimental data taken from article PMC8893300, “A Dynamic Mass Redistribution Assay for the Human Sweet Taste Receptor Uncovers G-Protein Dependent Biased Ligands” (Frontiers in Pharmacology, 2022).

Test system: human sweet taste receptor (hT1R2/hT1R3) coupled to Gα16gust25
Assay: FLIPR calcium mobilization assay, R2/R3 Gα16gust25 U2OS cells
Type: cell-based
Conditions: for ΔlogR FLIPR Mean: FLIPR-Gα16gust25, operational model, logR minus sucralose logR; for ΔΔlogR Mean: ΔlogR FLIPR-Gα16gust25 minus ΔlogR DMR
Protocol: The R2/R3 U2OS clone produced above was subsequently transfected with a linearized plasmid encoding Gα16gust25 in pcDNA3-neo. Transfected cells surviving triple selection in growth medium containing 0.5 μg/ml Puromycin (for hT1R2 expression), 100 μg/ml zeocin (for hT1R3 expression) and 500 μg/ml geneticin (Gα16gust25 expression) were diluted at various densities to obtain isolated colonies. Individual colonies were expanded, and the presence of functional human sweet receptor and G protein was evaluated in a FLIPR assay using sucralose as the agonist. Selected colonies were further evaluated with a larger panel of agonists. One clone, called L1F2, was used for this study.
Cells were gently mixed with the virus at a multiplicity of infection (MOI) of 5. Using a multidrop, 70 μl per well of the cell and virus mixture was dispensed in a 384-well clear bottom plate (Fisher). After 24 h of incubation in a humidified 37°C tissue culture incubator, trichostatin A was added to a final concentration of 0.3 μM and the cells were incubated for another 18–24 h at 34°C. On the day of the experiment, cells were loaded with 4 μM of the calcium indicator Fluo-4 AM (Invitrogen) in D-PBS for 1 h at room temperature. After washing the cells with D-PBS using a cell washer (BioTek) and a 30-minute rest time, the cell plate and the compound plate were transferred into the FLIPR-Tetra (Molecular Devices). Imaging and data analysis was performed as described ([Servant et al., 2010]). Alternatively, R2/R3 Gα16gust25 U2OS cells were re-suspended at a final density of 2.25 × 10^5 viable cells per mL and the mixture was dispensed in a 384-well clear bottom plate (Fisher) at 80 μl per well. Loading and the FLIPR assay were run as described above. When indicated, data for agonist dose-responses were normalized to data obtained with a maximum concentration of sucralose (1 mM) and then fitted and plotted using GraphPad Prism (San Diego, CA) and non-linear regression analysis.
To visualize and assess bias between the two different cell-based assays, we used bias plotting as described ([Drake et al., 2008]; [Peters and Scott, 2009]; [Gregory et al., 2010]; [Thomsen et al., 2012]; [Kenakin, 2015]; [Montero-Melendez et al., 2015]). To calculate relative potency bias between the two assays, we calculated a ratio of the negative logarithm of the EC50 (in M) of each agonist to that of sucralose (a sucralose dose-response was performed as a control on the same day) as described: pEC50 compound X–pEC50 sucralose. This value, that we termed pEC50Ratio (sucralose) or pEC50R (sucralose), was calculated with EC50 values obtained in the two assay systems. This transformation also allowed determination of an average and a standard error for the pEC50R (sucralose). The two sets of data (DMR and FLIPR data) were then analyzed with an un-paired t-test (α = 0.05). To calculate relative efficacy bias between the two assays, we captured the top asymptote value from each activity-normalized dose-response curve, as provided by the curve fit, calculated an average and a standard deviation (sd) for each agonist and then analyzed the data pairs with an un-paired t-test (α = 0.05). Assay bias was also estimated using an operational model ([Kenakin et al., 2012]; [Nagi and Pineyro, 2016]). The following steps were followed: 1) Using the PRISM software, we re-analyzed each ligand’s dose-response data obtained in each assay with non-linear regression and the users-defined equation “New Operational Model with TauKa ratios” and retrieved logR values from the fits.

## COC(=O)[C@H](Cc1ccccc1)NC(=O)[C@H](CC(=O)O)NCCC(C)(C)C [Neotame]
  ΔlogR FLIPR Mean: 1.52
  ΔΔlogR Mean: 0.36

## CC(C)Oc1ccc(NC(=S)NCc2ccc[nH]2)cc1 [S819]
  ΔlogR FLIPR Mean: 2.40
  ΔΔlogR Mean: −0.13

## CC(C)Oc1ccc(NC(=S)NCc2cccs2)cc1 [S5227]
  ΔlogR FLIPR Mean: 1.73
  ΔΔlogR Mean: −0.12
